Some test systems named below: SN12C renal; MALME-3M melanoma; OVCAR-3 ovarian; K-562 leukemia; UACC-62 melanoma; SW-620 colon; SK-MEL-28 melanoma; MOLT-4 leukemia; HL-60(TB) leukemia; OVCAR-4 ovarian.
Test in all cases: NCI tumour cell line growth inhibition, 48 h

The structures appear in SMILES notation. Several values for one entry are separate records, joined by “and”; a condition that tells them apart may be missing. Identical values can stand only once.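 Method: 48-hour compound exposure of cells in 96-well plates, five concentrations, linear interpolation of endpoints. The concentration for 50% growth inhibition is given as GI50. TGI: concentration producing complete growth inhibition.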

For the compound `N#Cc1c(NCc2ccccc2)nc(NCc2ccccc2)c(C#N)c1-c1ccc(Cl)cc1`, the GI50 in the assay with SN12C renal is > 50 µM and 36.2 µM; in the assay on MALME-3M melanoma, over 100 µM; in the assay with OVCAR-3 ovarian it was > 50 µM and 34.4 µM; in the assay on K-562 leukemia it was over 50 µM; in the assay on UACC-62 melanoma, > 50 µM and 37.8 µM; in the assay on SW-620 colon, > 50 µM and 44.1 µM. Further, the GI50 in the assay on SK-MEL-28 melanoma is > 50 µM and 59 µM; with MOLT-4 leukemia, > 50 µM and 76.9 µM; in the assay on HL-60(TB) leukemia, over 50 µM; in the assay with OVCAR-4 ovarian, > 50 µM and 23.9 µM. Also, the TGI was over 100 µM in the assay with SN12C renal; over 100 µM in the assay on MALME-3M melanoma; over 100 µM in the assay with OVCAR-3 ovarian; over 50 µM in the assay with K-562 leukemia; over 100 µM in the assay with UACC-62 melanoma; over 100 µM in the assay on SW-620 colon. For the same compound, the TGI with SK-MEL-28 melanoma was over 100 µM; in the assay with MOLT-4 leukemia, over 100 µM; in the assay on HL-60(TB) leukemia, over 50 µM; in the assay on OVCAR-4 ovarian, over 100 µM.
In the case of `COc1cc2c3c(n(CCCN4CCNCC4)c(=O)c2cc1OC)-c1cc2c(cc1C3=O)OCO2`, the GI50 is 0.102 µM with SN12C renal; 2.55 µM with MALME-3M melanoma; 1.22 µM in the assay with OVCAR-3 ovarian; 0.111 µM in the assay with K-562 leukemia; 0.997 µM in the assay with UACC-62 melanoma; 0.0613 µM in the assay on SW-620 colon. In addition, the GI50 in the assay with SK-MEL-28 melanoma was 4.11 µM; in the assay with MOLT-4 leukemia, 0.005 µM; with HL-60(TB) leukemia, 0.00886 µM; with OVCAR-4 ovarian it was 4.05 µM. Moreover, the TGI stood at 0.491 µM in the assay on SN12C renal; 12.2 µM in the assay on MALME-3M melanoma; 4.35 µM in the assay on OVCAR-3 ovarian; 18.3 µM with K-562 leukemia; 7.61 µM in the assay on UACC-62 melanoma; 6.32 µM in the assay with SW-620 colon. Besides, the TGI was determined as 19.6 µM in the assay with SK-MEL-28 melanoma, 0.533 µM in the assay with MOLT-4 leukemia, 0.746 µM in the assay on HL-60(TB) leukemia and 12.4 µM in the assay with OVCAR-4 ovarian.
Consider `COC(=O)c1ccc2nc(-c3cc4ccccc4n3C)n(CCCCOc3cc4c(cc3OC)C(=O)N3CCC[C@H]3C=N4)c2c1`, for which the GI50 was 0.361 µM in the assay on SN12C renal; 1.07 µM in the assay on MALME-3M melanoma; 0.214 µM in the assay with OVCAR-3 ovarian; 0.286 µM with K-562 leukemia; 0.211 µM in the assay on UACC-62 melanoma; 0.389 µM with SW-620 colon. Moreover, the GI50 with SK-MEL-28 melanoma is 0.652 µM; with MOLT-4 leukemia, 0.298 µM; in the assay with HL-60(TB) leukemia, 0.273 µM; with OVCAR-4 ovarian, 1.54 µM. Besides, the TGI is 2.17 µM with SN12C renal; 2.83 µM in the assay on MALME-3M melanoma; 0.51 µM in the assay with OVCAR-3 ovarian; 0.625 µM in the assay with UACC-62 melanoma; 1.75 µM with SW-620 colon; 2.3 µM in the assay on SK-MEL-28 melanoma. The compound further registered a TGI in the assay with OVCAR-4 ovarian of 11.4 µM.
For the compound `O=C(CCCn1c2c(sc3ccccc32)c(=O)n2nnc(-c3ccccc3)c12)NCCc1cnc[nH]1`, the GI50 is under 0.0105 µM with SN12C renal; 1.88 µM in the assay with MALME-3M melanoma; 2.01 µM with OVCAR-3 ovarian; 0.0456 µM with K-562 leukemia; 1.81 µM in the assay on UACC-62 melanoma; 0.0245 µM in the assay with SW-620 colon. The GI50 in the assay with SK-MEL-28 melanoma was 1.01 µM; in the assay with MOLT-4 leukemia, 0.815 µM; with HL-60(TB) leukemia it was 0.0724 µM; in the assay on OVCAR-4 ovarian, 1.84 µM. The TGI was determined as 2.01 µM in the assay on SN12C renal; 3.58 µM in the assay with MALME-3M melanoma; 5.41 µM in the assay with OVCAR-3 ovarian; 3.39 µM in the assay on UACC-62 melanoma; 0.362 µM in the assay on SW-620 colon; 2.36 µM in the assay on SK-MEL-28 melanoma. Moreover, the TGI in the assay on MOLT-4 leukemia is over 100 µM; with HL-60(TB) leukemia, 3.21 µM; in the assay with OVCAR-4 ovarian, 4.33 µM.
For `C[C@H](c1ccc(F)cc1CCCC(=O)O)N(c1cc(F)ccc1F)S(=O)(=O)c1ccc(Cl)cc1`, the GI50 in the assay on SN12C renal was 32.2 µM; in the assay with MALME-3M melanoma, 23.5 µM; in the assay on OVCAR-3 ovarian, 19.6 µM; with K-562 leukemia it was 36.6 µM; with UACC-62 melanoma, 14.2 µM; in the assay with SW-620 colon it was 34.6 µM. Also, the GI50 is 22.1 µM with SK-MEL-28 melanoma, 22.8 µM with MOLT-4 leukemia, 30.7 µM in the assay on HL-60(TB) leukemia and 26.8 µM with OVCAR-4 ovarian. In addition, the TGI with SN12C renal was over 100 µM; with MALME-3M melanoma, 93.8 µM; with OVCAR-3 ovarian it was 44 µM; in the assay on K-562 leukemia, over 100 µM; with UACC-62 melanoma, 39.2 µM; with SW-620 colon, over 100 µM. The TGI in the assay with SK-MEL-28 melanoma was 65.5 µM; with MOLT-4 leukemia, over 83 µM; in the assay on HL-60(TB) leukemia, over 95.1 µM; in the assay on OVCAR-4 ovarian, over 89.9 µM.
Regarding `C[C@@H](N)COc1ccc(-c2cnc3ccc(N[C@H](C)c4cccc(F)c4)nn23)cc1`, the GI50 in the assay with SN12C renal is 2.02 µM; in the assay with MALME-3M melanoma it was 1.33 µM; in the assay with OVCAR-3 ovarian, 2.12 µM; in the assay with K-562 leukemia, 1.95 µM; in the assay with UACC-62 melanoma, 1.97 µM; in the assay with SW-620 colon, 1.55 µM. Besides, the GI50 was 1.64 µM with SK-MEL-28 melanoma, 2 µM in the assay with MOLT-4 leukemia, 1.81 µM with HL-60(TB) leukemia and 2.49 µM with OVCAR-4 ovarian. In addition, the TGI was found to be 10.4 µM with SN12C renal; 2.62 µM in the assay with MALME-3M melanoma; 4.66 µM with OVCAR-3 ovarian; 6.96 µM with K-562 leukemia; 4.74 µM in the assay with UACC-62 melanoma; 3.44 µM in the assay with SW-620 colon. Further, the TGI came to 3.07 µM in the assay on SK-MEL-28 melanoma, 6.44 µM in the assay on MOLT-4 leukemia, 3.74 µM in the assay with HL-60(TB) leukemia and 11.9 µM in the assay with OVCAR-4 ovarian.
For the compound `O=C1Nc2ccccc2/C1=C\c1c(-c2ccccc2)nc2sccn12`, the GI50 in the assay on SN12C renal was 2.75 µM; in the assay with MALME-3M melanoma it was 1.92 µM; in the assay with OVCAR-3 ovarian it was 0.506 µM; in the assay on K-562 leukemia, 0.624 µM; with UACC-62 melanoma, 0.798 µM; with SW-620 colon, 2.16 µM. For the same compound, the GI50 is 8.98 µM with SK-MEL-28 melanoma, 1.1 µM in the assay on MOLT-4 leukemia, 0.999 µM in the assay with HL-60(TB) leukemia and 12.6 µM in the assay with OVCAR-4 ovarian. The TGI with SN12C renal is 14.4 µM; with MALME-3M melanoma, 21.7 µM; in the assay with OVCAR-3 ovarian, 1.93 µM; with K-562 leukemia, over 45.8 µM; in the assay with UACC-62 melanoma it was 9.72 µM; with SW-620 colon, 27.1 µM. Further, the TGI with SK-MEL-28 melanoma is 44.9 µM; with MOLT-4 leukemia, over 37.5 µM; with HL-60(TB) leukemia, 7.33 µM; in the assay with OVCAR-4 ovarian, 62.8 µM.
Turning to `O=C(CCC(=O)Nc1ccc(Cl)c(Cl)c1)CC(=O)c1ccc2ccccc2c1`, the TGI in the assay with SN12C renal, in the assay on MALME-3M melanoma, with OVCAR-3 ovarian, in the assay on K-562 leukemia, in the assay on UACC-62 melanoma and in the assay on SW-620 colon was over 100 µM throughout. Further, the TGI in the assay with SK-MEL-28 melanoma, with MOLT-4 leukemia, in the assay on HL-60(TB) leukemia and in the assay on OVCAR-4 ovarian was over 100 µM throughout.

The values are drawn from PubChem BioAssay (NCI).
